We go through 23 compounds from patent publication US11104674B2 (Hoffmann-La Roche Inc., priority 2016, dated 2021).

The test system of the assay is HBsAg. Briefly: HBsAg assay (chemiluminescence immunoassay of secreted HBsAg). Type of assay: cell-based, HBV. Conditions: Hepatitis B virus, HepG2.2.15, HBsAg secretion, HepG2.2.15 cells, CLIA of culture supernatant. Here is the method:
HepG2.2.15 cells (Acs et al. Proc Natl Acad Sci USA, 84, (1987), 4641-4), a constitutively HBV-expressing cell line were cultured in DMEM+Glutamax-I medium (Invitrogen, Carlsbad, Calif., USA), supplemented with 10% fetal bovine serum (Invitrogen) and G418 (Invitrogen) at a final concentration of 200 mg/L and maintained in 5% CO2 at 37° C.
HepG2.2.15 cells were seeded in duplicate into white, 96-well plates at 1.5×10^4 cells/well. The cells were treated with a three-fold serial dilution series of the compounds in DMSO. The final DMSO concentration in all wells was 1% and DMSO was used as no drug control.
The HBsAg chemiluminescence immunoassay (CLIA) kit (Autobio Diagnostics Co., Zhengzhou, China, Catalog number: CL0310-2) was used to measure the levels of secreted HBV antigens semi-quantitatively. For the detection 50 μL/well culture supernatant was used and HBsAg was quantified using HBsAg chemiluminescence immunoassay (CLIA) kit (Autobio Diagnostics Co., Zhengzhou, China, Catalog number: CL0310-2), 50 μL of the supernatant was transferred to the CLIA assay plate and 50 μL of enzyme conjugate reagent was added into each well. The plates were sealed and gently agitated for 1 hour at room temperature. The supernatant-enzyme-mixture was discarded and wells were washed 6 times with 300 μL of PBS.
The residual liquid was removed by plating the CLIA plate right side down on absorbent tissue paper. 25 μL of substrates A and B were added to each well. Luminance was measured using a luminometer (Mithras LB 940 Multimode Microplate Reader) after 10 minutes incubation. Dose-response curves were generated and the IC50 value was extrapolated by using the E-WorkBook Suite (ID Business Solutions Ltd., Guildford, UK). The IC50 was defined as the compound concentration (or conditioned media log dilution) at which HBsAg secretion was reduced by 50% compared to the no drug control.
The compounds according to formula I were tested for their capacity to inhibit HBsAg as described herein.
What is called IC50 is the concentration that gives 50% inhibition. High values mean lower potency, low ones higher potency. In the case of `CC1c2cnc(-c3ccccn3)nc2CCN1c1cc(F)cc(N2CCC(O)C2)n1` (centres unmarked) [Example 59, 1-[4-fluoro-6-[5-methyl-2-(2-pyridyl)-7,8-dihydro-5H-pyrido[4,3-d]pyrimidin-6-yl]-2-pyridyl]pyrrolidin-3-ol], the IC50 came to 26 nM.

Compound `CC1c2cnc(-c3ncccn3)nc2CCN1c1cc(F)cc(N2CCOC(CO)C2)n1` (centres unmarked) [Example 25, [4-[4-fluoro-6-(5-methyl-2-pyrimidin-2-yl-7,8-dihydro-5H-pyrido[4,3-d]pyrimidin-6-yl)-2-pyridyl]morpholin-2-yl]methanol] yielded an IC50 of 46 nM.

On to `CC1c2cnc(-c3ncccn3)nc2CCN1c1cc(N2CCN(S(C)(=O)=O)CC2)cc(F)n1` (centres unmarked) [Example 58, 6-[6-fluoro-4-(4-methylsulfonylpiperazin-1-yl)-2-pyridyl]-5-methyl-2-pyrimidin-2-yl-7,8-dihydro-5H-pyrido[4,3-d]pyrimidine], for which it took 15 nM to reach half-maximal inhibition (IC50). Under `CC1c2cnc(-c3ncccn3)nc2CCN1c1cc(N2CC(CO)C2)cc(F)n1` (centres unmarked) [Example 135, [1-[2-fluoro-6-(5-methyl-2-pyrimidin-2-yl-7,8-dihydro-5H-pyrido[4,3-d]pyrimidin-6-yl)-4-pyridyl]azetidin-3-yl]methanol] stands 8 nM; under `CC1c2cnc(-c3ncccn3)nc2CCN1c1cc(F)cc(N2CCC2)n1` (centres unmarked) [Example 109, 6-[6-(azetidin-1-yl)-4-fluoro-2-pyridyl]-5-methyl-2-pyrimidin-2-yl-7,8-dihydro-5H-pyrido[4,3-d]pyrimidine], 21 nM. In turn, `CC1c2cnc(-c3ncccn3)nc2CCN1c1cc(F)cc(N2CCCC2C(=O)O)n1` (centres unmarked) [Example 33, 1-[4-fluoro-6-(5-methyl-2-pyrimidin-2-yl-7,8-dihydro-5H-pyrido[4,3-d]pyrimidin-6-yl)-2-pyridyl]pyrrolidine-2-carboxylic acid] had an IC50 of 93 nM. As for `CC1c2cnc(-c3ncccn3)nc2CCN1c1cc(F)cc(N2CC(F)C2)n1` (centres unmarked) [Example 122, 6-[4-fluoro-6-(3-fluoroazetidin-1-yl)-2-pyridyl]-5-methyl-2-pyrimidin-2-yl-7,8-dihydro-5H-pyrido[4,3-d]pyrimidine], the IC50 came out at 28 nM.

`CC1c2cnc(-c3ncccn3)nc2CCN1c1cc(F)cc(N2CC(C(=O)NS(C)(=O)=O)C2)n1` (centres unmarked) [Example 63, 1-[4-fluoro-6-(5-methyl-2-pyrimidin-2-yl-7,8-dihydro-5H-pyrido[4,3-d]pyrimidin-6-yl)-2-pyridyl]-N-methylsulfonyl-azetidine-3-carboxamide] had an IC50 of 5420 nM. `CC1c2cnc(-c3ncccn3)nc2CCN1c1cc(N2CCCC2C(N)=O)cc(F)n1` (centres unmarked) [Example 42, 1-[2-fluoro-6-(5-methyl-2-pyrimidin-2-yl-7,8-dihydro-5H-pyrido[4,3-d]pyrimidin-6-yl)-4-pyridyl]pyrrolidine-2-carboxamide] registered an IC50 of 319 nM. In turn, `CC1c2cnc(-c3ccccn3)nc2CCN1c1cc(N2CCC(O)C2)cc(F)n1` (centres unmarked) [Example 60, 1-[2-fluoro-6-[5-methyl-2-(2-pyridyl)-7,8-dihydro-5H-pyrido[4,3-d]pyrimidin-6-yl]-4-pyridyl]pyrrolidin-3-ol] gave an IC50 of 23 nM. As for `CC1c2cnc(-c3ncccn3)nc2CCN1c1cc(N2CCOC(C)(C)C2)cc(F)n1` (centres unmarked) [Example 8, 4-[2-fluoro-6-(5-methyl-2-pyrimidin-2-yl-7,8-dihydro-5H-pyrido[4,3-d]pyrimidin-6-yl)-4-pyridyl]-2,2-dimethyl-morpholine], the IC50 was 11 nM. Take `CC1c2cnc(-c3ncccn3)nc2CCN1c1cc(N2CCN(S(C)(=O)=O)CC2=O)cc(F)n1` (centres unmarked) [Example 128, 1-[2-Fluoro-6-(5-methyl-2-pyrimidin-2-yl-7,8-dihydro-5H-pyrido[4,3-d]pyrimidin-6-yl)-4-pyridyl]-4-methylsulfonyl-piperazin-2-one]: the IC50 was 417 nM. Take `CC1c2cnc(-c3ncccn3)nc2CCN1c1cc(N2C3CCC2COC3)cc(F)n1` (centres unmarked) [Example 10, 8-[2-fluoro-6-(5-methyl-2-pyrimidin-2-yl-7,8-dihydro-5H-pyrido[4,3-d]pyrimidin-6-yl)-4-pyridyl]-3-oxa-8-azabicyclo[3.2.1]octane]: inhibition was half-maximal at 39 nM (IC50). Under `CC1c2cnc(-c3ncccn3)nc2CCN1c1cc(N2CCOC(CO)C2)cc(F)n1` (centres unmarked) [Example 24, [4-[2-fluoro-6-(5-methyl-2-pyrimidin-2-yl-7,8-dihydro-5H-pyrido[4,3-d]pyrimidin-6-yl)-4-pyridyl]morpholin-2-yl]methanol] stands 38 nM; under `CC1c2cnc(-c3ccccn3)nc2CCN1c1cc(F)cc(N2CCC(C(=O)NS(C)(=O)=O)C2)n1` (centres unmarked) [Example 85, 1-[4-fluoro-6-[5-methyl-2-(2-pyridyl)-7,8-dihydro-5H-pyrido[4,3-d]pyrimidin-6-yl]-2-pyridyl]-N-methylsulfonyl-pyrrolidine-3-carboxamide], 264 nM. In the case of `CC1c2cnc(-c3ncccn3)nc2CCN1c1cc(F)cc(N2CCC(O)C2)n1` (centres unmarked) [Example 37, 1-[4-fluoro-6-(5-methyl-2-pyrimidin-2-yl-7,8-dihydro-5H-pyrido[4,3-d]pyrimidin-6-yl)-2-pyridyl]pyrrolidin-3-ol], the IC50 was 11 nM. In the case of `CC1c2cnc(-c3ncccn3)nc2CCN1c1cc(N2CCC3(CCOC3)C2)cc(F)n1` (centres unmarked) [Example 12, 7-[2-fluoro-6-(5-methyl-2-pyrimidin-2-yl-7,8-dihydro-5H-pyrido[4,3-d]pyrimidin-6-yl)-4-pyridyl]-2-oxa-7-azaspiro[4.4]nonane], the half-maximal inhibitory concentration (IC50) was 8 nM. Consider `CC1c2cnc(-c3ncccn3)nc2CCN1c1cc(F)cc(N2CCC(C(=O)O)C2)n1` (centres unmarked) [Example 39, 1-[4-fluoro-6-(5-methyl-2-pyrimidin-2-yl-7,8-dihydro-5H-pyrido[4,3-d]pyrimidin-6-yl)-2-pyridyl]pyrrolidine-3-carboxylic acid], for which it took 108 nM to reach half-maximal inhibition (IC50). Under `CC1c2cnc(-c3ccccn3)nc2CCN1c1cc(F)cc(N2CCC(C(N)=O)CC2)n1` (centres unmarked) [Example 74, 1-[4-fluoro-6-[5-methyl-2-(2-pyridyl)-7,8-dihydro-5H-pyrido[4,3-d]pyrimidin-6-yl]-2-pyridyl]piperidine-4-carboxamide] stands 19 nM; under `CC1c2cnc(-c3ncccn3)nc2CCN1c1cc(N2CC(C(=O)O)C2)cc(F)n1` (centres unmarked) [Example 54, 1-[2-fluoro-6-(5-methyl-2-pyrimidin-2-yl-7,8-dihydro-5H-pyrido[4,3-d]pyrimidin-6-yl)-4-pyridyl]azetidine-3-carboxylic acid], 6340 nM. For `CC1c2cnc(-c3ncccn3)nc2CCN1c1cc(F)cc(N2CC(C(N)=O)C2)n1` (centres unmarked) [Example 81, 1-[4-fluoro-6-(5-methyl-2-pyrimidin-2-yl-7,8-dihydro-5H-pyrido[4,3-d]pyrimidin-6-yl)-2-pyridyl]azetidine-3-carboxamide], half-maximal inhibition (IC50) was put at 206 nM.

Compound `CC1c2cnc(-c3ncccn3)nc2CCN1c1cc(N2CC(C)(C)OC2=O)cc(F)n1` (centres unmarked) [Example 114, 3-[2-Fluoro-6-(5-methyl-2-pyrimidin-2-yl-7,8-dihydro-5H-pyrido[4,3-d]pyrimidin-6-yl)-4-pyridyl]-5,5-dimethyl-oxazolidin-2-one] had an IC50 of 8 nM. In the case of `CC1c2cnc(-c3ncccn3)nc2CCN1c1cc(F)cc(N2CCCC2CO)n1` (centres unmarked) [Example 31, [1-[4-fluoro-6-(5-methyl-2-pyrimidin-2-yl-7,8-dihydro-5H-pyrido[4,3-d]pyrimidin-6-yl)-2-pyridyl]pyrrolidin-2-yl]methanol], the 50% inhibitory concentration (IC50) was 14 nM.
